Source: patent publication US9399032B2, “Methods and compositions for treating degenerative and ischemic disorders” (The General Hospital Corporation, priority 2009, dated 2016)
Structures can show the parent of a compound that is named as a salt.

System: MCH58 fibroblasts
Test: Mass spectrometry-based metabolite profiling
Format: cell-based, human
Protocol: Metabolite profiling was performed on MCH58 fibroblasts following treatment with 50 μM meclizine or vehicle control for six hours, using methods similar to those previously described, see […] et al., Mol Syst Biol 4:214 (2008). […] For assessment of media metabolites, 500 μl of spent media or baseline media (prior to addition to cells) were sampled from the culture dish and immediately added to 500 μl of pre-cooled (-80° C.) methanol extraction solution (80% methanol, 20% H2O) to allow for rapid quenching of metabolism and extraction of metabolites. After 20 minutes at 4° C., samples were centrifuged at 14,000 g for 10 minutes. 50 μl of the supernatant was collected, re-diluted 1:20 with methanol extraction solution, and 100 μl of the final solution evaporated under nitrogen. Samples were reconstituted in 60 μl of HPLC-grade water and metabolite levels determined, as described below. For assessment of intracellular metabolites, media was aspirated from the above tissue culture plates and cells gently washed with 4 mL of PBS, to ensure complete removal of residual media metabolites. The PBS was removed and cellular metabolism quenched with immediate addition of 1 mL of pre-cooled (-80° C.) methanol extraction solution (80% methanol, 20% H2O). Cells were scraped, collected in extraction solution, vortexed and the samples centrifuged as described above for preparation of media samples. 100 μl of the supernatant was collected, re-diluted 1:1 with methanol extraction solution, and 100 μl of the final solution evaporated under nitrogen. Samples were reconstituted in 60 μl of HPLC-grade water and metabolites assessed. Six biological replicates were assessed for each group. Analyses of endogenous metabolites were performed using a liquid chromatography tandem mass spectrometry (LC-MS) system composed of a 4000 QTRAP triple quadrupole mass spectrometer (Applied Biosystems/SCIEX) coupled to three Agilent 1100 binary HPLC pumps (Agilent Technologies) and an HTS PAL autosampler (LEAP Technologies) equipped with three injection ports and a column selector valve. Three multiplexed chromatographic methods were configured for the analyses of each sample: LC method 1 used a Luna Phenyl-Hexyl column (Phenomenex) eluted with a linear gradient of water/acetonitrile/acetic acid (initial proportions 100/0/0.001, final proportions 10/90/0.001); […] LC method 3 used a Synergi Polar-RP column (Phenomenex) with reversed phase, gradient elution using 5% acetonitrile/5 mM ammonium acetate (mobile phase A) and 95% acetonitrile/5 mM ammonium acetate (mobile phase B). MS data were acquired using multiple reaction monitoring (MRM) in both the positive (LC method 1) and negative (LC methods 2 and 3) ion modes. During the development of this method, authentic reference compounds were used to determine LC retention times and to tune MRM transitions. Metabolite quantification was performed by integrating peak areas for specific MRM transitions using MultiQuant software (version 1.1; Applied Biosystems/SCIEX) and all integrated peaks were manually reviewed for quality. Extraction and quantification procedures were optimized prior to assessment of samples in this study to ensure measured intracellular and media metabolites were within the linear range of detection. Confirmation of the phosphoethanolamine peak was performed using an exogenous phosphoethanolamine standard (Sigma P0503).

[1] = intracellular, 50 μM, 6 h, over DMSO

Cc1cccc(CN2CCN(C(c3ccccc3)c3ccc(Cl)cc3)CC2)c1 (racemic) [Meclizine, meclizine hydrochloride]
Fold Change P1_M0003_2′-deoxycytidine [1]: 1.13 | Fold Change P1_M0007_Acetylcholine_p2_Met-146 [1]: 1.06 | Fold Change P1_M0008_Alanine [1]: 1.40 | Fold Change P1_M0009_Allantoin [1]: 0.91 | Fold Change P1_M0012_Arginine [1]: 1.01 | Fold Change P1_M0013_Argininosuccinate [1]: 1.08 | Fold Change P1_M0014_Asparagine [1]: 2.43 | Fold Change P1_M0015_Aspartate [1]: 1.25 | Fold Change P1_M0016_Betaine [1]: 1.08 | Fold Change P1_M0018_Carnosine [1]: 1.00 | Fold Change P1_M0019_Choline [1]: 0.90 | Fold Change P1_M0022_Creatine [1]: 1.47 | Fold Change P1_M0023_Creatinine [1]: 1.03 | Fold Change P1_M0026_Cysteine [1]: 1.38 | Fold Change P1_M0027_Cytidine [1]: 1.28 | Fold Change P1_M0030_DimethylGlycine [1]: 0.98 | Fold Change P1_M0034_GlutamicAcid_p2 [1]: 1.16 | Fold Change P1_M0035_Glutamine [1]: 1.05 | Fold Change P1_M0038_Histidine [1]: 1.07 | Fold Change P1_M0039_Homocysteine [1]: 0.95 | Fold Change P1_M0040_Homoserine [1]: 1.14 | Fold Change P1_M0041_Hydroxyproline [1]: 1.17 | Fold Change P1_M0042/M0044_Ile/Leu [1]: 0.91 | Fold Change P1_M0045_Lysine [1]: 1.08 | Fold Change P1_M0046_Metanephrine_p2 [1]: 0.87 | Fold Change P1_M0047_Methionine [1]: 1.06 | Fold Change P1_M0050_Niacinamide [1]: 1.08 | Fold Change P1_M0052_Ornithine [1]: 1.01 | Fold Change P1_M0053_Phenylalanine [1]: 1.09 | Fold Change P1_M0054_Phosphoethanolamine [1]: 38.21 | Fold Change P1_M0055_Proline [1]: 1.28 | Fold Change P1_M0056_Pyridoxine [1]: 1.15 | Fold Change P1_M0058_Serine [1]: 1.11 | Fold Change P1_M0062_Taurine [1]: 1.59 | Fold Change P1_M0063_Threonine [1]: 1.14 | Fold Change P1_M0066_Tryptophan [1]: 1.13 | Fold Change P1_M0067_Tyrosine [1]: 1.18 | Fold Change P1_M0068/M0037_Valine/GuanidinoaceticAcid [1]: 0.94 | Fold Change P1_M0070_Xanthosine [1]: 1.21 | Fold Change P1_M0142_Thymidine [1]: 0.97 | Fold Change P1_M0200_L-NMMA [1]: 0.59 | Fold Change P1_M0201/M0202_ADMA/SDMA [1]: 0.99 | Fold Change P1_M0204_Glycerol [1]: 0.94 | Fold Change P1_NM001-M68_Valine-d8 [1]: 1.01 | Fold Change P3_M0077_Acetoacetate [1]: 1.07 | Fold Change P3_M0081_ADP_p2 [1]: 1.43 | Fold Change P3_M0082_AMP [1]: 1.31 | Fold Change P3_M0100_FolicAcid [1]: 0.63 | Fold Change P3_M0102/M0103/M0196_F16DiP/F26DiP/G16DiP_D79_p2 [1]: 1.32 | Fold Change P3_M0104-M0107_F1P/F6P/G1P/G6P_D97 [1]: 0.97 | Fold Change P3_M0109-M0110_Glucose/Galactose [1]: 0.94 | Fold Change P3_M0111_GlutathioneOxidized [1]: 1.20 | Fold Change P3_M0112_GlutathioneReduced [1]: 1.74 | Fold Change P3_M0113_Glyceraldehyde [1]: 1.00 | Fold Change P3_M0114_Glycerol-3-P [1]: 1.21 | Fold Change P3_M0121_Hypoxanthine [1]: 1.17 | Fold Change P3_M0126_LacticAcid [1]: 0.99 | Fold Change P3_M0127_Lactose [1]: 0.42 | Fold Change P3_M0129_NAD [1]: 1.11 | Fold Change P3_M0130_NADP [1]: 1.24 | Fold Change P3_M0139_Sorbitol [1]: 0.92 | Fold Change P3_M0140_Sucrose [1]: 1.18 | Fold Change P3_M0145/M0146_UDP-Glucose/UDP-Galactose_p2 [1]: 1.33 | Fold Change P3_M0147_UDP-GlucuronicAcid [1]: 1.45 | Fold Change P3_M0149_Uracil [1]: 0.90 | Fold Change P3_M0150_Uridine [1]: 0.88 | Fold Change P3_M0152_Xanthine [1]: 0.85 | Fold Change P3_M0154_Methylmalonate [1]: 0.86 | Fold Change P3_M0164/M0175_FumaricAcid/MaleicAcid [1]: 1.07 | Fold Change P3_M0195_3-PhosphoglycericAcid [1]: 1.45 | Fold Change P3_NM002-M109_Glucose-13C6-d7 [1]: 1.02 | Fold Change P3_NM003-M161_CitricAcid-d4 [1]: 0.97 | Fold Change P4_CAP193_Met-165 [1]: 0.90 | Fold Change P4_M0083_ATP_D159 [1]: 1.27 | Fold Change P4_M0088_CMP [1]: 1.27 | Fold Change P4_M0089_CTP [1]: 1.32 | Fold Change P4_M0090_Cystathionine [1]: 1.53 | Fold Change P4_M0091_DCDP [1]: 1.09 | Fold Change P4_M0092_DCMP [1]: 1.17 | Fold Change P4_M0093_DCTP [1]: 1.02 | Fold Change P4_M0097_DUMP [1]: 0.88 | Fold Change P4_M0100_FolicAcid [1]: 0.84 | Fold Change P4_M0102/M0103/M0196_F16DiP/F26DiP/G16DiP_D79_p1 [1]: 1.14 | Fold Change P4_M0102/M0103/M0196_F16DiP/F26DiP/G16DiP_D241 [1]: 1.07 | Fold Change P4_M0108_GDP_p1 [1]: 1.38 | Fold Change P4_M0116_GTP [1]: 1.24 | Fold Change P4_M0121_Hypoxanthine [1]: 0.76 | Fold Change P4_M0123_Inosine_p2 [1]: 1.18 | Fold Change P4_M0126_LacticAcid [1]: 0.96 | Fold Change P4_M0137/M0138_Ribose-5-P/Ribulose-5-P_D97 [1]: 1.07 | Fold Change P4_M0140_Sucrose [1]: 1.10 | Fold Change P4_M0144_UDP [1]: 1.21 | Fold Change P4_M0148_UMP_p1 [1]: 0.83 | Fold Change P4_M0151_UTP [1]: 1.09 | Fold Change P4_M0157/M0156_Alpha-Keto-Glutarate/AdipicAcid [1]: 1.06 | Fold Change P4_M0158_AscorbicAcid [1]: 0.96 | Fold Change P4_M0159_CDP [1]: 1.52 | Fold Change P4_M0161/M0172_CitricAcid/IsocitricAcid [1]: 0.66 | Fold Change P4_M0162_Citrulline [1]: 0.87 | Fold Change P4_M0163_DHAP [1]: 0.98 | Fold Change P4_M0164/M0175_FumaricAcid/MaleicAcid [1]: 0.94 | Fold Change P4_M0165_GeranylPyrophosphate [1]: 1.18 | Fold Change P4_M0166_Glucuronate [1]: 0.77 | Fold Change P4_M0167_Glycerate-2-P_p1_Met-185 [1]: 1.09 | Fold Change P4_M0168_GlycochenodeoxycholicAcid [1]: 0.83 | Fold Change P4_M0169_GlycocholicAcid [1]: 0.68 | Fold Change P4_M0170_HippuricAcid [1]: 0.86 | Fold Change P4_M0173_Kynurenine [1]: 0.96 | Fold Change P4_M0176_MalicAcid [1]: 0.96 | Fold Change P4_M0180_OH-PhenylPyruvate [1]: 0.86 | Fold Change P4_M0183_Oxaloacetate [1]: 0.92 | Fold Change P4_M0184_PantothenicAcid [1]: 1.29 | Fold Change P4_M0185_Pyridoxal-5-phosphate_p1 [1]: 1.01 | Fold Change P4_M0187_SuccinicAcid [1]: 0.83 | Fold Change P4_M0188_TaurochenodeoxycholicAcid [1]: 0.76 | Fold Change P4_M0190_UricAcid [1]: 0.87 | Fold Change P4_M0191_Xanthosine-5′-monophosphate [1]: 1.75 | Fold Change P4_M0198_AconiticAcid(CAP203)_D129 [1]: 0.55 | Fold Change P4_M0205_PhosphoTyrosine [1]: 1.23 | Fold Change P4_M0206_Acetyl-CoA_P404 [1]: 1.22 | Fold Change P4_M0207_Malonyl-CoA_p1 [1]: 1.16 | Fold Change P4_M0210_Pyruvate [1]: 1.08 | Fold Change P4_NM002-M109_Glucose-13C6-d7 [1]: 1.15 | Fold Change P4_NM003-M161_CitricAcid-d4_p1 [1]: 1.02 | increase of intracellular phosphoethanolamine (six hours after treatment): ~35 fold
